Assay [1] relates to Co26 murine colon carcinoma (Co26-CC) cell adhesion to HSE cells. The assay is described as follows: Co26 colon carcinoma cell adhesion to HSE cells. Format: cell-based. The following applies: FIG. 6B. The method, then: Time-dependent adhesion assays was carried out on a quantitative basis according to previous validated bioassays (Vidal-Vanaclocha et al., Cancer Research, 1994, 54(10):2667-72). For tumor cell pre-labelling, they were allowed to accumulate the non-fluorescent sterase substrate BCECF-AM and to hydrolyze it to its fluorescent product BCECF which becomes trapped inside living cells. To do this, 50 μg of BCECF-AM were diluted in dry DMSO (5 μl) and DME medium until […] (40 μg/ml).
Tumor cells (5×10^6) were incubated in BCECF-AM solution at 37° C. for 30 min. After gently washing, tumor cells were resuspended in fresh medium (DMEM without phenol red) at a concentration of 2×10^6 cells/ml.
Twenty-four hours post-plating, primary cultured hepatic sinusoidal endothelial (HSE) cells were also used for adhesion assay. To determine the basal autofluorescence per well, plates were read on a fluorometric microplate reader (Multiskan Ascent, Thermo Labsystems) using 485/22 nm excitation and the 530/25 nm emission filter. Then, 2×10^5 labeled tumor cells were added to each well of HSE cells and to collagen pre-coated control wells.
However, in order to determine the exact number of cells in each well, co-culture plates were read for a second time. Then, plates were incubated at 37° C. […]

Assay [2] has as its system VEGF production by B16M cells. The assay is described as follows: Measurement of VEGF production by B16M cells in response to soluble ICAM-1 and H2O2 (ELISA). Type of assay: cell-based, murine. The settings on record: 10 μg/ml HC0303 30 min prior to 200 ng/ml sICAM-1, then DMEM or 10 μM H2O2 for 2 hours; FIG. 8; P<0.01. How it is done: Cultured B16M cells were incubated for 30 min with 200 ng/ml soluble ICAM-1 prior to either basal medium (DMEM) or 10 μM H2O2. Some cells were pre-incubated with 1 μg/ml anti-murine LFA-1 monoclonal antibody or 10 μg/ml compound HC0303 for 30 min before ICAM-1 addition. After 2 hours, supernatants were collected, centrifuged at 1,000 g for 10 min and subjected to 0.22 μm filtration.
The addition of either 1 μg/ml anti-murine LFA-1 monoclonal antibody or 10 μg/ml compound HC0303 for 30 minutes prior to sICAM-1 abrogated induced VEGF production (FIG. 8). Data represent the mean ±SD of two separate experiments; differences in VEGF production in treated versus untreated cells (*) and ICAM-1/H2O2-treated cells were statistically significant (P<0.01) by ANOVA and Bonferroni's post-hoc test.

The test system of the next assay is Co26-CC cells. As to the kind of experiment: Hepatic metastasis assay (intrasplenic injection of Co26-CC cells). Type of assay: in vivo, BALB/c mice. The following applies: Co26-CC cells preincubated with 10 μg/ml HC0303 for 30 min before intrasplenic injection; day 14; vs untreated cells; FIG. 9; P<0.01. How it is done: Hepatic metastases were produced by the intrasplenic injection into anesthetized male BALB/c mice (6- to 8-weeks old) of 1.5×10^5 viable Co26-CC cells suspended in 0.1 ml Hanks' balanced salt solution. Some cells were incubated with 10 μg/ml compound HC0303 for 30 min prior to their inoculation. Mice were killed by cervical dislocation on the 14th day after the injection of cancer cells. An integrated image analysis system (Olympus Microimage 4.0 capture kit) connected to an Olympus BX51TF microscope was used to quantify the number of foci and their average diameters in serially-cut and hematoxylin/eosin stained hepatic tissue sections.
Densitometric analysis of digitalized microscopic images was used to distinguish metastatic tissue from normal hepatic tissue. Previously described stereological procedures were employed (cf. Vidal-Vanaclocha et al., Cancer Research, 1994, 54(10):2667-72) and the following parameters were calculated: the liver metastasis density, which was the number of metastases per 100 mm^3 of liver (based on the mean number of foci detected in fifteen 10×10 mm^2 sections per liver) and the liver metastasis volume (mean percentage of liver volume occupied by metastases).
In vitro effect of compound HC0303 on in vivo metastatic behavior of cancer cells was tested in Co26-CC cells. […] In addition, the percentage of liver volume occupied by metastases was assessed. […]

Each structure is given as a SMILES string.

For the compound `CC[C@H](C)C(OCc1ccccc1)[C@@H]1[C@H]([N+](=O)[O-])[C@H](c2ccccc2)N[C@]1(C)C(=O)NCCC(=O)O` (stereo partly drawn) [HC0303, 3-[(2S,3R,4S,5S)-3-[(2S)-1-(Benzyloxy)-2-methylbutyl]-2-methyl-4-nitro-5-phenylpyrrolidine-2-carboxamido]propanoic acid], the “PMA-induced cancer cell adhesion to HSE cells” value in assay [1] (100 ng/ml PMA 30 min, then HC0303 20 μg/5×10^5 cells for 30 min, P<0.01) is “significantly decreased”. For the same compound, the “adhesion to untreated HSE cells (no PMA)” value in assay [1] (HC0303 20 μg/5×10^5 cells for 30 min) is reported as “did not affect”. Also, in assay [2], the “induced VEGF production (sICAM-1 / H2O2)” value was “abrogated”. Further, in the assay on Co26-CC cells, the “liver metastasis density (number of foci/100 mm^3)” value was “almost abrogated” and the “liver metastasis volume (percentage of liver volume occupied by metastases)” value was “almost abrogated”.
